From ChEMBL document CHEMBL1201862, “PubChem BioAssay data set” (2004)
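Tested at 5 concentrations; 48 h exposure; 96-well plates; endpoints linearly interpolated, else capped at highest concentration. The concentration for 50% growth inhibition is given as GI50.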 Activity calls are given as the source filed them. Cut-off read from the data, not from the text of the source: active = GI50 up to about 1.1 µM and inactive = higher.

Key:
Test in all cases: NCI tumour cell line growth inhibition, 48 h
786-0 = system: 786-0
A498 = system: A498
A549 = system: A549
ACHN = system: ACHN
BT-549 = system: BT-549
CAKI-1 = system: CAKI-1
CCRF-CEM = system: CCRF-CEM
COLO 205 = system: COLO 205
DU-145 = system: DU-145
EKVX = system: EKVX
HCC 2998 = system: HCC 2998
HCT-116 = system: HCT-116
HCT-15 = system: HCT-15
HL-60 = system: HL-60
HOP-62 = system: HOP-62
HOP-92 = system: HOP-92
HT-29 = system: HT-29
Hs-578T = system: Hs-578T
IGROV-1 = system: IGROV-1
K562 = system: K562
KM12 = system: KM12
LOX IMVI = system: LOX IMVI
M14 = system: M14
MCF7 = system: MCF7
MDA-MB-231 = system: MDA-MB-231
MDA-MB-435 = system: MDA-MB-435
MDA-N = system: MDA-N
MOLT-4 = system: MOLT-4
Malme-3M = system: Malme-3M
NCI-H226 = system: NCI-H226
NCI-H23 = system: NCI-H23
NCI-H460 = system: NCI-H460
NCI/ADR-RES = system: NCI/ADR-RES
OVCAR-3 = system: OVCAR-3
OVCAR-4 = system: OVCAR-4
OVCAR-5 = system: OVCAR-5
OVCAR-8 = system: OVCAR-8
PC-3 = system: PC-3
RPMI-8226 = system: RPMI-8226
RXF 393 = system: RXF 393
SF-268 = system: SF-268
SK-MEL-28 = system: SK-MEL-28
SK-MEL-2 = system: SK-MEL-2
SK-MEL-5 = system: SK-MEL-5
SK-OV-3 = system: SK-OV-3
SN12C = system: SN12C
SNB-19 = system: SNB-19
SNB-75 = system: SNB-75
SR = system: SR
SW-620 = system: SW-620
T47D = system: T47D
U-251 = system: U-251
UACC-257 = system: UACC-257
UACC-62 = system: UACC-62
NCI-H522 = system: NCI-H522
SF-295 = system: SF-295
TK-10 = system: TK-10
UO-31 = system: UO-31
SF-539 = system: SF-539

For `CCN(CC)c1ccc2cc(C(=O)Nc3ccc(C)cc3)c(=N)oc2c1`, the GI50 (786-0) was > 100 µM (inactive), the GI50 (A498) was > 100 µM (inactive) and the GI50 (A549) was > 100 µM (inactive). The GI50 (ACHN) was > 100 µM (inactive), the GI50 (BT-549) was > 100 µM (inactive) and the GI50 (CAKI-1) was > 100 µM (inactive). For the same compound, the GI50 (CCRF-CEM) was > 100 µM (inactive), the GI50 (COLO 205) was > 100 µM (inactive) and the GI50 (DU-145) was > 100 µM (inactive). For the same compound, the GI50 (EKVX) was > 100 µM (inactive), the GI50 (HCC 2998) was > 100 µM (inactive) and the GI50 (HCT-116) was > 100 µM (inactive). The GI50 (HCT-15) was > 100 µM, the GI50 (HL-60) was > 100 µM (inactive) and the GI50 (HOP-62) was > 100 µM (inactive). For the same compound, the GI50 (HOP-92) was > 100 µM (inactive), the GI50 (HT-29) was > 100 µM (inactive) and the GI50 (Hs-578T) was > 100 µM (inactive). The GI50 (IGROV-1) was > 100 µM (inactive), the GI50 (K562) was > 100 µM (inactive) and the GI50 (KM12) was > 100 µM (inactive). For the same compound, the GI50 (LOX IMVI) was > 100 µM (inactive), the GI50 (M14) was > 100 µM (inactive) and the GI50 (MCF7) was > 100 µM (inactive). For the same compound, the GI50 (MDA-MB-231) was > 100 µM (inactive), the GI50 (MDA-MB-435) was > 100 µM (inactive) and the GI50 (MDA-N) was > 100 µM (inactive). For the same compound, the GI50 (MOLT-4) was > 100 µM (inactive), the GI50 (Malme-3M) was > 100 µM (inactive) and the GI50 (NCI-H226) was > 100 µM (inactive). For the same compound, the GI50 (NCI-H23) was > 100 µM (inactive), the GI50 (NCI-H460) was > 100 µM (inactive) and the GI50 (NCI/ADR-RES) was > 100 µM (inactive). For the same compound, the GI50 (OVCAR-3) was > 100 µM (inactive), the GI50 (OVCAR-4) was > 100 µM (inactive) and the GI50 (OVCAR-5) was > 100 µM (inactive). The GI50 (OVCAR-8) was > 100 µM (inactive), the GI50 (PC-3) was > 100 µM (inactive) and the GI50 (RPMI-8226) was > 100 µM (inactive). For the same compound, the GI50 (RXF 393) was > 100 µM (inactive), the GI50 (SF-268) was > 100 µM (inactive) and the GI50 (SK-MEL-28) was > 100 µM (inactive). The GI50 (SK-MEL-2) was > 100 µM (inactive), the GI50 (SK-MEL-5) was > 100 µM (inactive) and the GI50 (SK-OV-3) was > 100 µM (inactive). The GI50 (SN12C) was > 100 µM (inactive), the GI50 (SNB-19) was > 100 µM (inactive) and the GI50 (SNB-75) was > 100 µM (inactive). The GI50 (SR) was > 100 µM (inactive), the GI50 (SW-620) was > 100 µM (inactive) and the GI50 (T47D) was > 100 µM (inactive). The GI50 (U-251) was > 100 µM (inactive), the GI50 (UACC-257) was > 100 µM (inactive) and the GI50 (UACC-62) was > 100 µM (inactive).
In the case of `Cn1c(=O)[nH]c2sc3c(c2c1=N)CCCC3`, the GI50 (786-0) is reported as > 75 µM (inactive), the GI50 (A498) is reported as > 75 µM (inactive) and the GI50 (ACHN) is reported as > 75 µM (inactive). The GI50 (BT-549) was > 75 µM (inactive), the GI50 (CAKI-1) was > 75 µM (inactive) and the GI50 (COLO 205) was > 75 µM (inactive). The GI50 (DU-145) was > 75 µM (inactive), the GI50 (EKVX) was 54.7 µM (inactive) and the GI50 (HCC 2998) was 58.9 µM (inactive). For the same compound, the GI50 (HCT-116) was > 75 µM (inactive), the GI50 (HCT-15) was > 75 µM and the GI50 (HL-60) was 32.7 µM (inactive). For the same compound, the GI50 (HOP-62) was > 75 µM (inactive), the GI50 (HT-29) was > 75 µM (inactive) and the GI50 (Hs-578T) was > 75 µM (inactive). The GI50 (IGROV-1) was > 75 µM (inactive), the GI50 (K562) was > 75 µM (inactive) and the GI50 (KM12) was > 75 µM (inactive). For the same compound, the GI50 (LOX IMVI) was > 75 µM (inactive), the GI50 (MCF7) was > 75 µM (inactive) and the GI50 (MDA-MB-231) was > 75 µM (inactive). For the same compound, the GI50 (MDA-MB-435) was > 75 µM (inactive), the GI50 (MDA-N) was > 75 µM (inactive) and the GI50 (MOLT-4) was > 75 µM (inactive). The GI50 (Malme-3M) was > 75 µM (inactive), the GI50 (NCI-H226) was > 75 µM (inactive) and the GI50 (NCI-H23) was > 75 µM (inactive). For the same compound, the GI50 (NCI-H460) was > 75 µM (inactive), the GI50 (NCI-H522) was > 75 µM (inactive) and the GI50 (NCI/ADR-RES) was > 75 µM (inactive). The GI50 (OVCAR-3) was > 75 µM (inactive), the GI50 (OVCAR-4) was > 75 µM (inactive) and the GI50 (OVCAR-5) was > 75 µM (inactive). The GI50 (OVCAR-8) was > 75 µM (inactive), the GI50 (PC-3) was > 75 µM (inactive) and the GI50 (RPMI-8226) was 50.1 µM (inactive). The GI50 (RXF 393) was > 75 µM (inactive), the GI50 (SF-268) was > 75 µM (inactive) and the GI50 (SF-295) was > 75 µM (inactive). The GI50 (SK-MEL-28) was > 75 µM (inactive), the GI50 (SK-MEL-2) was 0.199 µM (active) and the GI50 (SK-MEL-5) was > 75 µM (inactive). The GI50 (SN12C) was > 75 µM (inactive), the GI50 (SNB-19) was > 75 µM (inactive) and the GI50 (SNB-75) was > 75 µM (inactive). The GI50 (SR) was > 75 µM (inactive), the GI50 (SW-620) was > 75 µM (inactive) and the GI50 (T47D) was > 75 µM (inactive). The GI50 (TK-10) was > 75 µM (inactive), the GI50 (U-251) was > 75 µM (inactive) and the GI50 (UACC-257) was > 75 µM (inactive). The GI50 (UACC-62) was > 75 µM (inactive) and the GI50 (UO-31) was > 75 µM (inactive).
For `N=C(N)NCCCC(NC(=O)OCCCCCCn1ccc(N)nc1=O)C(=O)O` (configuration not stated), the GI50 (786-0) was > 100 µM (inactive), the GI50 (A498) was > 100 µM (inactive) and the GI50 (A549) was > 100 µM (inactive). The GI50 (ACHN) was > 100 µM (inactive), the GI50 (BT-549) was > 100 µM (inactive) and the GI50 (CAKI-1) was > 100 µM (inactive). The GI50 (CCRF-CEM) was > 100 µM (inactive), the GI50 (COLO 205) was > 100 µM (inactive) and the GI50 (DU-145) was > 100 µM (inactive). The GI50 (EKVX) was > 100 µM (inactive), the GI50 (HCC 2998) was > 100 µM (inactive) and the GI50 (HCT-116) was > 100 µM (inactive). For the same compound, the GI50 (HCT-15) was > 100 µM, the GI50 (HL-60) was > 100 µM (inactive) and the GI50 (HOP-62) was > 100 µM (inactive). For the same compound, the GI50 (HOP-92) was > 100 µM (inactive), the GI50 (HT-29) was > 100 µM (inactive) and the GI50 (Hs-578T) was > 100 µM (inactive). For the same compound, the GI50 (IGROV-1) was > 100 µM (inactive), the GI50 (K562) was > 100 µM (inactive) and the GI50 (KM12) was > 100 µM (inactive). The GI50 (LOX IMVI) was > 100 µM (inactive), the GI50 (M14) was > 100 µM (inactive) and the GI50 (MCF7) was > 100 µM (inactive). For the same compound, the GI50 (MDA-MB-231) was > 100 µM (inactive), the GI50 (MDA-MB-435) was > 100 µM (inactive) and the GI50 (MDA-N) was > 100 µM (inactive). The GI50 (MOLT-4) was > 100 µM (inactive), the GI50 (NCI-H226) was 0.418 µM (active) and the GI50 (NCI-H23) was > 100 µM (inactive). For the same compound, the GI50 (NCI-H460) was > 100 µM (inactive), the GI50 (NCI/ADR-RES) was 4.75 µM (inactive) and the GI50 (OVCAR-3) was > 100 µM (inactive). For the same compound, the GI50 (OVCAR-4) was > 100 µM (inactive), the GI50 (OVCAR-5) was > 100 µM (inactive) and the GI50 (PC-3) was > 100 µM (inactive). The GI50 (RPMI-8226) was > 100 µM (inactive), the GI50 (RXF 393) was > 100 µM (inactive) and the GI50 (SF-268) was > 100 µM (inactive). The GI50 (SF-295) was > 100 µM (inactive), the GI50 (SF-539) was > 100 µM (inactive) and the GI50 (SK-MEL-28) was > 100 µM (inactive). The GI50 (SK-MEL-2) was > 100 µM (inactive), the GI50 (SK-OV-3) was > 100 µM (inactive) and the GI50 (SN12C) was > 100 µM (inactive). For the same compound, the GI50 (SNB-19) was > 100 µM (inactive), the GI50 (SNB-75) was > 100 µM (inactive) and the GI50 (SR) was > 100 µM (inactive). The GI50 (SW-620) was > 100 µM (inactive), the GI50 (T47D) was > 100 µM (inactive) and the GI50 (TK-10) was > 100 µM (inactive). The GI50 (U-251) was > 100 µM (inactive), the GI50 (UACC-257) was > 100 µM (inactive) and the GI50 (UACC-62) was > 100 µM (inactive). For the same compound, the GI50 (UO-31) was > 100 µM (inactive).
